Source: ChEMBL document CHEMBL5126566, “Comparison of three zinc binding groups for HDAC inhibitors - A potency, selectivity and enzymatic kinetics study” (Bioorg Med Chem Lett, 2022)
pIC50: −log10 of the molar value. The source made the active and inactive calls. The calls are words filed in the database; no cut-off is given here.

Legend:
[1] = target: T1, Histone deacetylase 11 (Homo sapiens, UniProt Q96DB2); assay: Inhibition of HDAC11 (unknown origin)
T1 sequence (Q96DB2 whole entry): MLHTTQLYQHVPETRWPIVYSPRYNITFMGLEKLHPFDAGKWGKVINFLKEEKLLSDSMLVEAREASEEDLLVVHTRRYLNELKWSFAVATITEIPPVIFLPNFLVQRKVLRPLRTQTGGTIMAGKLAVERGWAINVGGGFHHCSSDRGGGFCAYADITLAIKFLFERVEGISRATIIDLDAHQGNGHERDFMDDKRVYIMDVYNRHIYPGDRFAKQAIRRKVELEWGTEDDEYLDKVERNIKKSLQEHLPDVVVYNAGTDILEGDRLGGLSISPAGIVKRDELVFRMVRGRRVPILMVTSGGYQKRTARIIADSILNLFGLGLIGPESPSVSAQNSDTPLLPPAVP

[2] = target: T2, Histone deacetylase 3 (Homo sapiens, UniProt O15379); assay: Inhibition of HDAC3 (unknown origin) preincubated for 5 mins
[3] = target: T2, Histone deacetylase 3; assay: Inhibition of HDAC3 (unknown origin)
[4] = test system: MV4-11; assay: Antiproliferative activity against human MV4-11 cells; format: functional, cell-based
[5] = target: T3, Histone deacetylase 1 (Homo sapiens, UniProt Q13547); assay: Mixed-type inhibition of HDAC1 (unknown origin) at 17.8 to 60 nM by Lineweaver-Burk plot analysis; conditions: dose 17.8-60 nM
[6] = target: Histone deacetylase 9 (Homo sapiens, UniProt Q9UKV0); assay: Inhibition of HDAC9 (unknown origin)
[7] = target: Histone deacetylase 5 (Homo sapiens, UniProt Q9UQL6); assay: Inhibition of HDAC5 (unknown origin)
[8] = target: T2, Histone deacetylase 3; assay: Inhibition of HDAC3 (unknown origin) at 1 uM preincubated for 1 hr followed by 100-fold dilution and subsequent substrate addition measured after 1 hr; conditions: time 2.0 hrs
[9] = target: T2, Histone deacetylase 3; assay: Inhibition of HDAC3 (unknown origin) preincubated for 60 mins
[10] = target: T3, Histone deacetylase 1; assay: Inhibition of HDAC1 (unknown origin) preincubated for 60 mins
[11] = target: T4, Histone deacetylase 2 (Homo sapiens, UniProt Q92769); assay: Inhibition of HDAC2 (unknown origin) preincubated for 30 mins
[12] = target: T3, Histone deacetylase 1; assay: Inhibition of HDAC1 (unknown origin)
[13] = target: T4, Histone deacetylase 2; assay: Inhibition of HDAC2 (unknown origin) preincubated for 90 mins
[14] = target: Histone deacetylase (Homo sapiens) (UniProt Q13547+O15379+Q9UBN7+Q92769+Q9UQL6+Q8WUI4+Q9BY41+Q96DB2+P56524+Q9UKV0+Q969S8); assay: Inhibition of HDAC in human MV4-11 cells assessed as histone H3 acetylation preincubated for 3 hrs followed by compound washout and measured after 6 hrs by Western blot analysis; format: cell-based
[15] = target: T5, Histone deacetylase 8 (Homo sapiens, UniProt Q9BY41); assay: Inhibition of HDAC8 (unknown origin)
T5 sequence (Q9BY41 whole entry): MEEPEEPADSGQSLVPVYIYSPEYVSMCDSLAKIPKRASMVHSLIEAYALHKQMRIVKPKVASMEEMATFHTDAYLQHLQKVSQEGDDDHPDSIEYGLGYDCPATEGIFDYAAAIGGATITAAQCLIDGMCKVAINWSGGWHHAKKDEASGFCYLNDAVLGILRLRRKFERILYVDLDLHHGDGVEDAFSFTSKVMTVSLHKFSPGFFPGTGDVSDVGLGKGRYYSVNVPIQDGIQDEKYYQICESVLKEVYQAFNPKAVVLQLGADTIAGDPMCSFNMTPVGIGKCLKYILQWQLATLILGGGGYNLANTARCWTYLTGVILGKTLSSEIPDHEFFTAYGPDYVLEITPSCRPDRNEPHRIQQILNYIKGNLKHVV

[16] = target: T3, Histone deacetylase 1; assay: Inhibition of HDAC1 (unknown origin) preincubated for 30 mins
[17] = target: T3, Histone deacetylase 1; assay: Inhibition of HDAC1 (unknown origin) preincubated for 5 mins
[18] = target: T6, Polyamine deacetylase HDAC10 (Homo sapiens, UniProt Q969S8); assay: Inhibition of HDAC10 (unknown origin)
T6 sequence (Q969S8 whole entry): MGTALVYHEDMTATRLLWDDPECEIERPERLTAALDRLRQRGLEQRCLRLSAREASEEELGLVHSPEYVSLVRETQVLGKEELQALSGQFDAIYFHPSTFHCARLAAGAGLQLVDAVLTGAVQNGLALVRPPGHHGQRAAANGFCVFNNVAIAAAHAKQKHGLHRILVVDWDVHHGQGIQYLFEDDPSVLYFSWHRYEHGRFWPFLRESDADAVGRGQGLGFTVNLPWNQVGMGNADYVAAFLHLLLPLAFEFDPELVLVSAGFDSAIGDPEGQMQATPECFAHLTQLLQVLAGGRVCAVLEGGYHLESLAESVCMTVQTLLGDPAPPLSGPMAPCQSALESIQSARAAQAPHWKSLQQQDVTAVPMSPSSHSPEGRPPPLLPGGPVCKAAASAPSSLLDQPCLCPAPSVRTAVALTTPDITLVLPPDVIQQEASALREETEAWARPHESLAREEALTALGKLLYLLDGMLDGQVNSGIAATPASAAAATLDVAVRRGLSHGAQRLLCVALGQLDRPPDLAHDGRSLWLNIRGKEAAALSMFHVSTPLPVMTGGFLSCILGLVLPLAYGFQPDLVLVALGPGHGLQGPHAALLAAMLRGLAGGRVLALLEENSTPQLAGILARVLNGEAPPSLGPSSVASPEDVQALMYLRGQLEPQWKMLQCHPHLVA

[19] = target: T4, Histone deacetylase 2; assay: Inhibition of HDAC2 (unknown origin)
[20] = target: T7, Histone deacetylase 7 (Homo sapiens, UniProt Q8WUI4); assay: Inhibition of HDAC7 (unknown origin)
T7 sequence (Q8WUI4 whole entry): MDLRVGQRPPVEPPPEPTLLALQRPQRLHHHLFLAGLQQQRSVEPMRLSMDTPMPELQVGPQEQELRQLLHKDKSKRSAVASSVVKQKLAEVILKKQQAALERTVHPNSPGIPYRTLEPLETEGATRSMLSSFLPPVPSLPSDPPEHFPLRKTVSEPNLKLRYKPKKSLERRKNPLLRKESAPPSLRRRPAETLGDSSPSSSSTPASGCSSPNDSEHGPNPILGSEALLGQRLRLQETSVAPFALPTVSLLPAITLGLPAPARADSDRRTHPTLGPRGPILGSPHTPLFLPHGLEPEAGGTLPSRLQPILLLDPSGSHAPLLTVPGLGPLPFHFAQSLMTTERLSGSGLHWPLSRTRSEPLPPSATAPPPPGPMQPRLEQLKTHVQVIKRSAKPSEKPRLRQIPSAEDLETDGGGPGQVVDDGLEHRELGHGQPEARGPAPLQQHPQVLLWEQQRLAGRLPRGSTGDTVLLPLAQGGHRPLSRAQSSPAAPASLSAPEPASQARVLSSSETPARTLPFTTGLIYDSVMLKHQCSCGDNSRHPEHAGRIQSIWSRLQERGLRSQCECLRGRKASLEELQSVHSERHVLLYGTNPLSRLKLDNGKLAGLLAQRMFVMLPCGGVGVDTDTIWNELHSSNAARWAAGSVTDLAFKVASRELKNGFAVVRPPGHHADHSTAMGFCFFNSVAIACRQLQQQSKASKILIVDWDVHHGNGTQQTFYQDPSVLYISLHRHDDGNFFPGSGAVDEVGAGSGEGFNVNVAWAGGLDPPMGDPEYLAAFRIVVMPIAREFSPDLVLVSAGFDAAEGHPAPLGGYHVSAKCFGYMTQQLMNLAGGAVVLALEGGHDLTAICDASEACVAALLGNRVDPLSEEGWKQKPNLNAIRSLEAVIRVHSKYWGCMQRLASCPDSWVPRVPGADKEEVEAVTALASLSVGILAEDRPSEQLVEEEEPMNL

[21] = target: T3, Histone deacetylase 1; assay: Inhibition of HDAC1 (unknown origin) at 1 uM preincubated for 1 hr followed by 100-fold dilution and subsequent substrate addition measured after 1 hr; conditions: time 2.0 hrs
[22] = target: T4, Histone deacetylase 2; assay: Inhibition of HDAC2 (unknown origin) preincubated for 5 mins
[23] = target: T3, Histone deacetylase 1; assay: Inhibition of HDAC1 (unknown origin) preincubated for 120 mins
[24] = target: T4, Histone deacetylase 2; assay: Inhibition of HDAC2 (unknown origin) at 1 uM preincubated for 1 hr followed by 100-fold dilution and subsequent substrate addition measured after 1 hr; conditions: time 2.0 hrs
[25] = target: T4, Histone deacetylase 2; assay: Inhibition of HDAC2 (unknown origin) preincubated for 120 mins
[26] = target: T4, Histone deacetylase 2; assay: Inhibition of HDAC2 (unknown origin) preincubated for 60 mins
[27] = target: T2, Histone deacetylase 3; assay: Mixed-type inhibition of HDAC3 (unknown origin) at 17.8 to 60 nM by Lineweaver-Burk plot analysis; conditions: dose 17.8-60 nM
[28] = target: T2, Histone deacetylase 3; assay: Inhibition of HDAC3 (unknown origin) preincubated for 90 mins
[29] = target: Histone deacetylase 4 (Homo sapiens, UniProt P56524); assay: Inhibition of HDAC4 (unknown origin)
[30] = target: T8, Protein deacetylase HDAC6 (Homo sapiens, UniProt Q9UBN7); assay: Inhibition of HDAC6 (unknown origin)
T8 sequence (Q9UBN7 whole entry): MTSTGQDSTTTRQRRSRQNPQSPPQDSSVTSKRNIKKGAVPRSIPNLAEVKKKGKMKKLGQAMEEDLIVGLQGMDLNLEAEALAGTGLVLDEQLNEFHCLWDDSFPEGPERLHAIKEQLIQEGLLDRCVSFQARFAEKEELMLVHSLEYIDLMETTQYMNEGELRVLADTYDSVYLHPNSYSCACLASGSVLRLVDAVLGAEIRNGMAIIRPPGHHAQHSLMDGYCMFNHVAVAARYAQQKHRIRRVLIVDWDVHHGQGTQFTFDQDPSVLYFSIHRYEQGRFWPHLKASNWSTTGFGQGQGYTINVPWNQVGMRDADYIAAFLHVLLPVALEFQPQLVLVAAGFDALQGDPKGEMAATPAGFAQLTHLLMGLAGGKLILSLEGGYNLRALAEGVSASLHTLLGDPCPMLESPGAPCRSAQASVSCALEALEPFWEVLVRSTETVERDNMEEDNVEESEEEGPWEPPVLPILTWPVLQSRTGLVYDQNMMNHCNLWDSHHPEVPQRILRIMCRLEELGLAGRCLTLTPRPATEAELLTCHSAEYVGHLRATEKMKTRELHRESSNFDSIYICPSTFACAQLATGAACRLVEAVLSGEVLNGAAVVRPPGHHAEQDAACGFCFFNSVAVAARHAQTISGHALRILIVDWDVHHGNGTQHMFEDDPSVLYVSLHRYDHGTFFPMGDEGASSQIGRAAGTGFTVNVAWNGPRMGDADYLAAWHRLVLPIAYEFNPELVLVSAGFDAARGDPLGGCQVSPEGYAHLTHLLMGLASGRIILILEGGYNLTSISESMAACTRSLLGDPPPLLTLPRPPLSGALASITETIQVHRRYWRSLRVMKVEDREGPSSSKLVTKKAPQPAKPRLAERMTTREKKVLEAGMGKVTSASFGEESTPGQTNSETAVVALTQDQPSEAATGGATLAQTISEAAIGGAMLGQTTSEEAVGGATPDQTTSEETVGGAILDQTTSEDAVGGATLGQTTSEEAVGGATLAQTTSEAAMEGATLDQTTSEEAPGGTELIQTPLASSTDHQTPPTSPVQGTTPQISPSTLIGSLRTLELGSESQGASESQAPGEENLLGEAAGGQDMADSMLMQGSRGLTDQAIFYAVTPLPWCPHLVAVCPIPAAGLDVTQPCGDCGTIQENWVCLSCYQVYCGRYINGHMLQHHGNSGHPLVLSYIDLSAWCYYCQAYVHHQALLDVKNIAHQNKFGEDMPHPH

[31] = target: T2, Histone deacetylase 3; assay: Inhibition of HDAC3 (unknown origin) preincubated for 30 mins
[32] = target: T3, Histone deacetylase 1; assay: Inhibition of HDAC1 (unknown origin) preincubated for 90 mins
[33] = target: T4, Histone deacetylase 2; assay: Mixed-type inhibition of HDAC2 (unknown origin) at 17.8 to 60 nM by Lineweaver-Burk plot analysis; conditions: dose 17.8-60 nM
[34] = target: T2, Histone deacetylase 3; assay: Inhibition of HDAC3 (unknown origin) preincubated for 120 mins

T3 sequence (Q13547 whole entry): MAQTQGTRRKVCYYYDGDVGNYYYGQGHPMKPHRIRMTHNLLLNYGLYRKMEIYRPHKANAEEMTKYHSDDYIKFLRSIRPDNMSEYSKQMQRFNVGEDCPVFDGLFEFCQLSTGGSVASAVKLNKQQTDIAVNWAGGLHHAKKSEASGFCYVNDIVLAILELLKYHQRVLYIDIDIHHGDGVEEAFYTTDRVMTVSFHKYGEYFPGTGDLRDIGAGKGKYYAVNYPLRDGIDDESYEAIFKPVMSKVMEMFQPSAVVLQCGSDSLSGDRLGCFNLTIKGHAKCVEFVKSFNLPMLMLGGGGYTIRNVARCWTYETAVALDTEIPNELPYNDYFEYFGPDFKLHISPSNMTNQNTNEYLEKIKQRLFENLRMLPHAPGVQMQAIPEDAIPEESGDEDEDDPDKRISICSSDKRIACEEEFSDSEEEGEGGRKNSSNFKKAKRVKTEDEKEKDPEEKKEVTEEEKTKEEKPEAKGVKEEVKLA
T2 sequence (O15379 whole entry): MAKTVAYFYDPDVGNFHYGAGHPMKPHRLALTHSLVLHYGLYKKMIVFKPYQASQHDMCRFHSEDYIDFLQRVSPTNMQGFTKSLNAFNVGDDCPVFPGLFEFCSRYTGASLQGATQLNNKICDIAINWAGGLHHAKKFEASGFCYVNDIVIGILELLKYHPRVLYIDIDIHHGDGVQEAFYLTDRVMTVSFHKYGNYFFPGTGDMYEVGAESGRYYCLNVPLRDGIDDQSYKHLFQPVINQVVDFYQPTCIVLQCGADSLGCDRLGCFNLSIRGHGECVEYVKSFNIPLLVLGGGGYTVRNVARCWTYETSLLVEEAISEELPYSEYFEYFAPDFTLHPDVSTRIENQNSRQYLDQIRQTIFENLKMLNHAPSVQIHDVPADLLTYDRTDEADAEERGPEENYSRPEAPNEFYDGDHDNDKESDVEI
T4 sequence (Q92769 whole entry): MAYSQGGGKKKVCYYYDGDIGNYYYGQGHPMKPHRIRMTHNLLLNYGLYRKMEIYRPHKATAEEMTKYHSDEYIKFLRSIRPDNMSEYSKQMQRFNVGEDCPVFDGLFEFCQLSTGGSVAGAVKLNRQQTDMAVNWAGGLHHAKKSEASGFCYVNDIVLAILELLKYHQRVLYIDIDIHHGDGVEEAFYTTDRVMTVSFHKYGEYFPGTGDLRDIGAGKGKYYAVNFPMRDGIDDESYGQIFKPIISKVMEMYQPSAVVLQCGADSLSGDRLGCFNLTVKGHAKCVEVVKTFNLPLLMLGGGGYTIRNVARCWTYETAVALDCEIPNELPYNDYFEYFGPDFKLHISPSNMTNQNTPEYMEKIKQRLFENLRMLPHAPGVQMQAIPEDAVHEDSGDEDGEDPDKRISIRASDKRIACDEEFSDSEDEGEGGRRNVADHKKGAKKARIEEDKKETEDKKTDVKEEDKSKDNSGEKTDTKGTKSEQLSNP
Histone deacetylase 5, sequence (Q9UQL6 whole entry): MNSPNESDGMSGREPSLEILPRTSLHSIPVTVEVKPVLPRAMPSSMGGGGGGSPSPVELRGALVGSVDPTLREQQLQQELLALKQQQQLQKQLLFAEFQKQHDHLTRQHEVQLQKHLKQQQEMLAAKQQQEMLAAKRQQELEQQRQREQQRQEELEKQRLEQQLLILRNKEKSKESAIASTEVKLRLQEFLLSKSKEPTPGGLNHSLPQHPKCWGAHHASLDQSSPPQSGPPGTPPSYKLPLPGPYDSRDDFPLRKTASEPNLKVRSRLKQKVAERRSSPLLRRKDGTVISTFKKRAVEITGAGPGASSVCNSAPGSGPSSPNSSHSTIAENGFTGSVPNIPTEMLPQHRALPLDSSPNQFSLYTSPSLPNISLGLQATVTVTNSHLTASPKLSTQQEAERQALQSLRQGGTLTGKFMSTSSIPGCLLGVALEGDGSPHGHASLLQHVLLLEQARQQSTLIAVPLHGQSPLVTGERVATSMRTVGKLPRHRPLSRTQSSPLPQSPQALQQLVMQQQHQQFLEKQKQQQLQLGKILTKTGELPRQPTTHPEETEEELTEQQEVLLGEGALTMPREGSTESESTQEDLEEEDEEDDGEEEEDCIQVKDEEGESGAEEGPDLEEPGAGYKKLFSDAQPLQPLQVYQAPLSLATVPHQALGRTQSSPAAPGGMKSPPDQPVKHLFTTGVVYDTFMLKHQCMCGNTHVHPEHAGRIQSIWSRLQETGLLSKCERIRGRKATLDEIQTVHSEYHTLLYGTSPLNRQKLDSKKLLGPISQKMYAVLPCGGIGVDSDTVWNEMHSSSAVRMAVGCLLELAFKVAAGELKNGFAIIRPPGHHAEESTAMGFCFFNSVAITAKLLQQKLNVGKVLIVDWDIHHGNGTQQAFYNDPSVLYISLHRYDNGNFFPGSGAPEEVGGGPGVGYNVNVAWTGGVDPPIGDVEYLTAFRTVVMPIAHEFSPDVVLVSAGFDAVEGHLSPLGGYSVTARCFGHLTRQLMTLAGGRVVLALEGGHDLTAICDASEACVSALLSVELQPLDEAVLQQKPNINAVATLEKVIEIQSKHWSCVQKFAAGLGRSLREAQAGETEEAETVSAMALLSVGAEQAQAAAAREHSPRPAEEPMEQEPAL
Histone deacetylase 4, sequence (P56524 whole entry): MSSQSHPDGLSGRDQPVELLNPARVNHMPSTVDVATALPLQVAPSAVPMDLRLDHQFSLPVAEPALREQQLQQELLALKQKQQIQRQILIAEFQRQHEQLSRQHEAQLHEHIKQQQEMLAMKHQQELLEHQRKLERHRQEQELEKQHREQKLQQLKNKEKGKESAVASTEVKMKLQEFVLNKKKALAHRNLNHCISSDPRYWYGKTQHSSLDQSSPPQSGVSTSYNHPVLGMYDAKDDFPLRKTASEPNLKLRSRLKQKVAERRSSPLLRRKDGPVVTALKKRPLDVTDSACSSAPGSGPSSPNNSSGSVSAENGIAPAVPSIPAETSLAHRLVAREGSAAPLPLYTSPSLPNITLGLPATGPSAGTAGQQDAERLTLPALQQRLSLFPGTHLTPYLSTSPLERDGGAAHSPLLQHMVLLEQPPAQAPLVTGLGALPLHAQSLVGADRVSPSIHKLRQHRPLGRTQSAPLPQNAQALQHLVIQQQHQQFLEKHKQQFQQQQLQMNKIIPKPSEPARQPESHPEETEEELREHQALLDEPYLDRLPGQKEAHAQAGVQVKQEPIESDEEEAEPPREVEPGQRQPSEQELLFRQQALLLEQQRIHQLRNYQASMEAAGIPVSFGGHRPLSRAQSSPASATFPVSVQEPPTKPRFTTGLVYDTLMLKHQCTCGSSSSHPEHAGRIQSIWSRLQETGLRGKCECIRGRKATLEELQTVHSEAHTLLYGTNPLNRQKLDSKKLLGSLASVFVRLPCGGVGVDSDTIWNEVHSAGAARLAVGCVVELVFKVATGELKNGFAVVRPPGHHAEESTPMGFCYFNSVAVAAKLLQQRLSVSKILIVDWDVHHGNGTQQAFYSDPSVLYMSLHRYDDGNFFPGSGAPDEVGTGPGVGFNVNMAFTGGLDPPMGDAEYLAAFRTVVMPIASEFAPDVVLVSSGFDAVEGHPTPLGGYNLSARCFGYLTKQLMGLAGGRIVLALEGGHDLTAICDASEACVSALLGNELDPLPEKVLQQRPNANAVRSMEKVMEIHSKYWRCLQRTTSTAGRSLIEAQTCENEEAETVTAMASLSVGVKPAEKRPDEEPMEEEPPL
Histone deacetylase 9, sequence (Q9UKV0 whole entry): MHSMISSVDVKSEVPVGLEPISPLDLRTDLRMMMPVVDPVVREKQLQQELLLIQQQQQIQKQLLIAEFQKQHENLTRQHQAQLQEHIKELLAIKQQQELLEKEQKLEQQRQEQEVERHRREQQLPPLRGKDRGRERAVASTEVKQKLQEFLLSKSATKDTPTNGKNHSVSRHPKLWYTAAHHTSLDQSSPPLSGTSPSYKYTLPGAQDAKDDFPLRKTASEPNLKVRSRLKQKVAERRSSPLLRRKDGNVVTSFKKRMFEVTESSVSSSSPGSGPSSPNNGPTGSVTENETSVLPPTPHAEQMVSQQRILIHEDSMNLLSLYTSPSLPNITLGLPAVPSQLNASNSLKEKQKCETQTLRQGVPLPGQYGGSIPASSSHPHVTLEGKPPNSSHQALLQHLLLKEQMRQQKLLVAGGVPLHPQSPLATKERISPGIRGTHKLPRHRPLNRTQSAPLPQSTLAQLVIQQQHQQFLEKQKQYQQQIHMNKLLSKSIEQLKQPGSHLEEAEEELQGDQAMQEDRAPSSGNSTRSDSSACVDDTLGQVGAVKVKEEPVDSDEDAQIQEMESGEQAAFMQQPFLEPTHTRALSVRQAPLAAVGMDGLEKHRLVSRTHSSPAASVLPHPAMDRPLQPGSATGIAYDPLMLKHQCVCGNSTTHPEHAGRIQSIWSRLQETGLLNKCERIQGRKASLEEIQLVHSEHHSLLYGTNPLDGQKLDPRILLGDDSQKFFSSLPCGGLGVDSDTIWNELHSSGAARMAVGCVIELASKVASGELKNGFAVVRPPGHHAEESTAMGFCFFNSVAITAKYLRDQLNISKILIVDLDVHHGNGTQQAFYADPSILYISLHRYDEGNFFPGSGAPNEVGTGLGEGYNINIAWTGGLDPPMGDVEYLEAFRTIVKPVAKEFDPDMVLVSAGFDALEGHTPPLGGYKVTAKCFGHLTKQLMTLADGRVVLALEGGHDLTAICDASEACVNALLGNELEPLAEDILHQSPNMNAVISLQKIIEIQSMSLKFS

pIC50 [1]: < 5.00
pIC50 [2]: 7.23
pIC50 [3]: 7.69
pIC50 [4]: 6.23
inhibition [5]: Active
pIC50 [6]: < 5.00
pIC50 [7]: < 5.00
inhibition [8]: Active
pIC50 [9]: 7.64
pIC50 [10]: 7.20
pIC50 [11]: 6.52
pIC50 [12]: 7.34
pIC50 [13]: 6.79
inhibition [14]: Active
pIC50 [15]: < 5.00
pIC50 [16]: 7.05
pIC50 [17]: 6.76
pIC50 [18]: < 5.00
pIC50 [19]: 6.90
pIC50 [20]: < 5.00
inhibition [21]: Active
pIC50 [22]: 6.39
pIC50 [23]: 7.32
inhibition [24]: Active
pIC50 [25]: 6.84
pIC50 [26]: 6.67
inhibition [27]: Active
pIC50 [28]: 7.76
pIC50 [29]: < 5.00
pIC50 [30]: < 5.00
pIC50 [31]: 7.52
pIC50 [32]: 7.38
inhibition [33]: Active
pIC50 [34]: 7.75
SMILES: CCCNNC(=O)CCCCCCC(=O)Nc1ccccc1
